From ChEMBL document CHEMBL4507280 (2021)

Columns and labels:
[1] = system: Tyrosine-protein kinase ABL1 (Homo sapiens), P00519 [F317L]; conditions: Compound concentration 1000.0 nM
[2] = system: Tyrosine-protein kinase ABL1 (Homo sapiens), P00519 [M351T]; conditions: Compound concentration 1000.0 nM
[3] = biological target: RAC-alpha serine/threonine-protein kinase (Homo sapiens) (UniProt P31749); conditions: Compound concentration 1000.0 nM
[4] = biological target: Ankyrin repeat and protein kinase domain-containing protein 1 (Homo sapiens) (UniProt Q8NFD2); conditions: Compound concentration 1000.0 nM
[5] = biological target: Mitogen-activated protein kinase kinase kinase 5 (Homo sapiens) (UniProt Q99683); conditions: Compound concentration 1000.0 nM
[6] = biological target: Calcium/calmodulin-dependent protein kinase type II subunit delta (Homo sapiens) (UniProt Q13557); conditions: Compound concentration 1000.0 nM
[7] = biological target: Cyclin-dependent kinase 7 (Homo sapiens) (UniProt P50613); conditions: Compound concentration 1000.0 nM
[8] = biological target: Dual specificity protein kinase CLK4 (Homo sapiens) (UniProt Q9HAZ1); conditions: Compound concentration 1000.0 nM
[9] = biological target: Myotonin-protein kinase (Homo sapiens) (UniProt Q09013); conditions: Compound concentration 1000.0 nM
[10] = biological target: Dual specificity tyrosine-phosphorylation-regulated kinase 1B (Homo sapiens) (UniProt Q9Y463); conditions: Compound concentration 1000.0 nM
[11] = system: Epidermal growth factor receptor (Homo sapiens), P00533 [L858R]; conditions: Compound concentration 1000.0 nM
[12] = biological target: Ephrin type-B receptor 3 (Homo sapiens) (UniProt P54753); conditions: Compound concentration 1000.0 nM
[13] = biological target: Ephrin type-B receptor 4 (Homo sapiens) (UniProt P54760); conditions: Compound concentration 1000.0 nM
[14] = biological target: Fibroblast growth factor receptor 1 (Homo sapiens) (UniProt P11362); conditions: Compound concentration 1000.0 nM
[15] = biological target: Fibroblast growth factor receptor 2 (Homo sapiens) (UniProt P21802); conditions: Compound concentration 1000.0 nM
[16] = system: Receptor-type tyrosine-protein kinase FLT3 (Homo sapiens), P36888 [K663Q]; conditions: Compound concentration 1000.0 nM
[17] = biological target: Glycogen synthase kinase-3 alpha (Homo sapiens) (UniProt P49840); conditions: Compound concentration 1000.0 nM
[18] = biological target: Inhibitor of nuclear factor kappa-B kinase subunit alpha (Homo sapiens) (UniProt O15111); conditions: Compound concentration 1000.0 nM
[19] = biological target: Tyrosine-protein kinase JAK1 (Homo sapiens) (UniProt P23458); conditions: Compound concentration 1000.0 nM
[20] = biological target: Mitogen-activated protein kinase 9 (Homo sapiens) (UniProt P45984); conditions: Compound concentration 1000.0 nM
[21] = system: Mast/stem cell growth factor receptor Kit (Homo sapiens), P10721 [V559D,T670I]; conditions: Compound concentration 1000.0 nM
[22] = system: Leucine-rich repeat serine/threonine-protein kinase 2 (Homo sapiens), Q5S007 [G2019S]; conditions: Compound concentration 1000.0 nM
[23] = biological target: Mitogen-activated protein kinase kinase kinase 2 (Homo sapiens) (UniProt Q9Y2U5); conditions: Compound concentration 1000.0 nM
[24] = biological target: Mitogen-activated protein kinase kinase kinase 4 (Homo sapiens) (UniProt Q9Y6R4); conditions: Compound concentration 1000.0 nM
[25] = biological target: MAP kinase-activated protein kinase 2 (Homo sapiens) (UniProt P49137); conditions: Compound concentration 1000.0 nM
[26] = biological target: Hepatocyte growth factor receptor (Homo sapiens) (UniProt P08581); conditions: Compound concentration 1000.0 nM
[27] = biological target: Serine/threonine-protein kinase Nek6 (Homo sapiens) (UniProt Q9HC98); conditions: Compound concentration 1000.0 nM
[28] = biological target: Phosphorylase b kinase regulatory subunit alpha, liver isoform (Homo sapiens) (UniProt P46019); conditions: Compound concentration 1000.0 nM
[29] = system: Phosphatidylinositol 4,5-bisphosphate 3-kinase catalytic subunit alpha isoform (Homo sapiens), P42336 [E545K]; conditions: Compound concentration 1000.0 nM
[30] = biological target: Serine/threonine-protein kinase D2 (Homo sapiens) (UniProt Q9BZL6); conditions: Compound concentration 1000.0 nM
[31] = biological target: Ribosomal protein S6 kinase alpha-1 (Homo sapiens) (UniProt Q15418); conditions: Compound concentration 1000.0 nM
[32] = biological target: SRSF protein kinase 3 (Homo sapiens) (UniProt Q9UPE1); conditions: Compound concentration 1000.0 nM
[33] = biological target: Serine/threonine-protein kinase 16 (Homo sapiens) (UniProt O75716); conditions: Compound concentration 1000.0 nM
[34] = biological target: STE20/SPS1-related proline-alanine-rich protein kinase (Homo sapiens) (UniProt Q9UEW8); conditions: Compound concentration 1000.0 nM
[35] = biological target: Activated CDC42 kinase 1 (Homo sapiens) (UniProt Q07912); conditions: Compound concentration 1000.0 nM
[36] = biological target: Vascular endothelial growth factor receptor 2 (Homo sapiens) (UniProt P35968); conditions: Compound concentration 1000.0 nM
[37] = biological target: Serine/threonine-protein kinase VRK2 (Homo sapiens) (UniProt Q86Y07); conditions: Compound concentration 1000.0 nM
[38] = biological target: Serine/threonine-protein kinase WNK4 (Homo sapiens) (UniProt Q96J92); conditions: Compound concentration 1000.0 nM
[39] = biological target: T1, Muscarinic acetylcholine receptor M2 (Homo sapiens) (UniProt P08172); conditions: Compound concentration 10.0 uM
T1 sequence (whole entry): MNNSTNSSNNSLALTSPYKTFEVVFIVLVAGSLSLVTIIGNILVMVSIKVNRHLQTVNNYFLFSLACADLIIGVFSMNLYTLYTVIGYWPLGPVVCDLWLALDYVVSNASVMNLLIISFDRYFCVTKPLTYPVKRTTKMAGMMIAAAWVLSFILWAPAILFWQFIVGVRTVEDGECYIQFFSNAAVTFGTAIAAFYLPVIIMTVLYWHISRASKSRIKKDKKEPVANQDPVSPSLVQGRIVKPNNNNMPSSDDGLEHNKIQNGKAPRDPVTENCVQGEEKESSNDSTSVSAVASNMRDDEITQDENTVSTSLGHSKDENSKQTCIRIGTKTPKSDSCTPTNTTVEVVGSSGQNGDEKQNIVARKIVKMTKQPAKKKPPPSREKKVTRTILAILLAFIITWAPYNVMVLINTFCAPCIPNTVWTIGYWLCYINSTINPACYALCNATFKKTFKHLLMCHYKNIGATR

Chain of Mitogen-activated protein kinase kinase kinase 4 (Homo sapiens) (Q9Y6R4 whole entry): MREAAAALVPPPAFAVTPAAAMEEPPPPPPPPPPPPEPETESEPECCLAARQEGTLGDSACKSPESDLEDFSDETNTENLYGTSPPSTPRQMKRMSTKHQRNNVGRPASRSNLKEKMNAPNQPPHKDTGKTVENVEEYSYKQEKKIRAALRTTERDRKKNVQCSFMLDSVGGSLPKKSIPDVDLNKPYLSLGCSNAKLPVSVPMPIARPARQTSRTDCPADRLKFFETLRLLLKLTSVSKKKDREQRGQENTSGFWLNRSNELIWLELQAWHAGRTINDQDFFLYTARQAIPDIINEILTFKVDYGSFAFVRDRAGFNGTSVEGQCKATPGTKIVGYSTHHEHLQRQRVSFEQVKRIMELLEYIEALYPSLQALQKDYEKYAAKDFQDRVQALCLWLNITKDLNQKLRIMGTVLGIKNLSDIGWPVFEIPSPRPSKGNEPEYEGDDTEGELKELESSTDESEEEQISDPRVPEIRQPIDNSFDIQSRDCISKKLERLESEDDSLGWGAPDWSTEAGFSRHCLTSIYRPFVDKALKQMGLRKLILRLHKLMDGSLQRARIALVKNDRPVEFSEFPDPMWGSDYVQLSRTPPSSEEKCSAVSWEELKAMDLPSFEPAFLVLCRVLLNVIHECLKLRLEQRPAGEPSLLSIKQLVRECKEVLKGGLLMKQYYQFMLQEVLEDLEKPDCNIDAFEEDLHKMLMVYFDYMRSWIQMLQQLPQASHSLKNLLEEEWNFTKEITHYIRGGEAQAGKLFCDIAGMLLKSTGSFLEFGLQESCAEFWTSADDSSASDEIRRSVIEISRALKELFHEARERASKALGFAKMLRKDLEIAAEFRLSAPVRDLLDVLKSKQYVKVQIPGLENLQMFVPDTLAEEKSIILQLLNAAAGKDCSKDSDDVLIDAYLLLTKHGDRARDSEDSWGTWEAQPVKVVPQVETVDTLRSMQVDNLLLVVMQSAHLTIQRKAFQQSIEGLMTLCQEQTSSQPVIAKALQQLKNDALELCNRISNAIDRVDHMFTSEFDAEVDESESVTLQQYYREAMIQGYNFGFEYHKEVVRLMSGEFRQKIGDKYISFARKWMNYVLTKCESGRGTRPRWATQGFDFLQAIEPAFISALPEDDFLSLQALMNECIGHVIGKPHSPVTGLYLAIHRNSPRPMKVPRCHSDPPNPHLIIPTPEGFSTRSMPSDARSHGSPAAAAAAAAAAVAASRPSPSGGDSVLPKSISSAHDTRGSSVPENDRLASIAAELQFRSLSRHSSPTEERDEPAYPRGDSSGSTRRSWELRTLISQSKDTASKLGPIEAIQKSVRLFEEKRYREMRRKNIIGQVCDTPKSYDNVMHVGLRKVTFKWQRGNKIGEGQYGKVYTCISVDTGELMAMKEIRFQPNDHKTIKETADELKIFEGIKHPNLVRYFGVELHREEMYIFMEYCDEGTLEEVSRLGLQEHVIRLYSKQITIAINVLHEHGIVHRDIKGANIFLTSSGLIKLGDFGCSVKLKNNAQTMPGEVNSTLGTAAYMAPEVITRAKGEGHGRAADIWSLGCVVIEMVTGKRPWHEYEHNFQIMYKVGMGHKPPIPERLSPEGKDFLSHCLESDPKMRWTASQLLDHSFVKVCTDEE
Chain of Phosphatidylinositol 4,5-bisphosphate 3-kinase catalytic subunit alpha isoform (Homo sapiens), P42336 [E545K] (P42336 whole entry E545K, canonical isoform): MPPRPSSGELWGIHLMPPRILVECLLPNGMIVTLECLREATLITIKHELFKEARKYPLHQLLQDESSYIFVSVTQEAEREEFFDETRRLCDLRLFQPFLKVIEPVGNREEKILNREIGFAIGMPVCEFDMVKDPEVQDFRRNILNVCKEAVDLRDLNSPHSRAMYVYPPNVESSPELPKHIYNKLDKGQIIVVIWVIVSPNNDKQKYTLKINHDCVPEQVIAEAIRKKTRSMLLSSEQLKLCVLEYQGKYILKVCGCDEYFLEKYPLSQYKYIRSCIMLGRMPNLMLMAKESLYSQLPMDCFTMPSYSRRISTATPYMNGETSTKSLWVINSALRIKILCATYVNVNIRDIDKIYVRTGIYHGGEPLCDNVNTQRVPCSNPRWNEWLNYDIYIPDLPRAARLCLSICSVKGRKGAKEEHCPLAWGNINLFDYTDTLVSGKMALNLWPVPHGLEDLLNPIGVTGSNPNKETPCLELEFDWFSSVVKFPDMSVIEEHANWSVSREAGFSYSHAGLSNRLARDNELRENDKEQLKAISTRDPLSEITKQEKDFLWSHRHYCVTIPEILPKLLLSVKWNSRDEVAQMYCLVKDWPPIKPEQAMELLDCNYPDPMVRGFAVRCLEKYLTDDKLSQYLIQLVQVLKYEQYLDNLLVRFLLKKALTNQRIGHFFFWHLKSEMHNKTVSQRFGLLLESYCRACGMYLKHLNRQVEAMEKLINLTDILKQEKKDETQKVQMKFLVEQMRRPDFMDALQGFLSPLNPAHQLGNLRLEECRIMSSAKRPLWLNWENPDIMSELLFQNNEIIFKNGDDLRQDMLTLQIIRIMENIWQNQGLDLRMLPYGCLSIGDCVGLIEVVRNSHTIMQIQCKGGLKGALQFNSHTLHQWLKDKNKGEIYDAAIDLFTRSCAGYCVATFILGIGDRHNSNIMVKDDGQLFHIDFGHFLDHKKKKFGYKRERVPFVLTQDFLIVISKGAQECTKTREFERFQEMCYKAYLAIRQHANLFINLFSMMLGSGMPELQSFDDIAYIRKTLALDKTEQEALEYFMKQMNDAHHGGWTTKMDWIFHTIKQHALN
Chain of Mitogen-activated protein kinase kinase kinase 2 (Homo sapiens) (Q9Y2U5 whole entry): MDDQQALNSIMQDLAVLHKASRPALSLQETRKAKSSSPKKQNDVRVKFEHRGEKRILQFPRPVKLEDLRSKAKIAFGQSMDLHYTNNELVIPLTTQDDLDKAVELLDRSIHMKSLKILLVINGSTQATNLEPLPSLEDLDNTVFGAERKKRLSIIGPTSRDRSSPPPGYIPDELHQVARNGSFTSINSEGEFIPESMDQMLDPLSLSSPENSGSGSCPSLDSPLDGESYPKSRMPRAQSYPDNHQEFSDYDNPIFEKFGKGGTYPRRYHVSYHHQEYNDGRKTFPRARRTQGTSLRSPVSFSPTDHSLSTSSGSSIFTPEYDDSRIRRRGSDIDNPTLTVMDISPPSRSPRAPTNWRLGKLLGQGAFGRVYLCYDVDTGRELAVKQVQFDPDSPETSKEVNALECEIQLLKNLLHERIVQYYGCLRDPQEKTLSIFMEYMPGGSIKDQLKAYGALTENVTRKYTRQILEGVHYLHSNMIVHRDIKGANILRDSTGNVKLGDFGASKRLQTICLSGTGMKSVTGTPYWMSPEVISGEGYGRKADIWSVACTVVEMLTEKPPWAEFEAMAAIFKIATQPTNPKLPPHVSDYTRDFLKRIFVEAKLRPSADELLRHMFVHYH
Chain of Tyrosine-protein kinase JAK1 (Homo sapiens) (P23458 whole entry): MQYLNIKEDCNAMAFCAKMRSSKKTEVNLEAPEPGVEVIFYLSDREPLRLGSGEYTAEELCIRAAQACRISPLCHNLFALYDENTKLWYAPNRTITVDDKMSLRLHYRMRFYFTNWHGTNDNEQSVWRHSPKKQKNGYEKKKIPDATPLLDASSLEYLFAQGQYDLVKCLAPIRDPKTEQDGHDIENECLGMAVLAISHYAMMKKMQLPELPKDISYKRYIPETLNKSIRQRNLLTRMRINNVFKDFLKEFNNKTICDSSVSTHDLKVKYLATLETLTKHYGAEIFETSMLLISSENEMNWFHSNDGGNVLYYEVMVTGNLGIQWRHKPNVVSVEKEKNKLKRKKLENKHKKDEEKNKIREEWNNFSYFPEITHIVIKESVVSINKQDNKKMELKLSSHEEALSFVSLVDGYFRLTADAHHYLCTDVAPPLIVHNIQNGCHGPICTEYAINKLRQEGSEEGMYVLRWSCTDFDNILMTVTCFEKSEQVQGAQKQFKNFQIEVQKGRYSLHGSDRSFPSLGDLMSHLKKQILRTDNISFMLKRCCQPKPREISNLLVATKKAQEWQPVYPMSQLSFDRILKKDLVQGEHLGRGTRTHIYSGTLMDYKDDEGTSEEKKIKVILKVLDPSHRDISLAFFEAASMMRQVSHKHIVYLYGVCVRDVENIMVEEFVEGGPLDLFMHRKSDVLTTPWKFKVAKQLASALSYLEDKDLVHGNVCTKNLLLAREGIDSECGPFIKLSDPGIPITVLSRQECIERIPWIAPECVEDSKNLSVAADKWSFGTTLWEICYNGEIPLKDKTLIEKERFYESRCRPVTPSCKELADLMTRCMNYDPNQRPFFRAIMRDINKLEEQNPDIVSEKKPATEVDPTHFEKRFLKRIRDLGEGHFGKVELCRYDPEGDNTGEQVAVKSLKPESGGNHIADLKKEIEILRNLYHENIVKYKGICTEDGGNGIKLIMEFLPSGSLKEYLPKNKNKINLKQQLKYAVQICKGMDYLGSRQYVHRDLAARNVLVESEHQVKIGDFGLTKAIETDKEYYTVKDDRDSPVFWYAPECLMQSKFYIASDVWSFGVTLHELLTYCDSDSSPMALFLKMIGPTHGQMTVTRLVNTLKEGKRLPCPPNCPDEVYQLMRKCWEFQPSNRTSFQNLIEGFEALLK
Chain of Dual specificity protein kinase CLK4 (Homo sapiens) (Q9HAZ1 whole entry, looked up): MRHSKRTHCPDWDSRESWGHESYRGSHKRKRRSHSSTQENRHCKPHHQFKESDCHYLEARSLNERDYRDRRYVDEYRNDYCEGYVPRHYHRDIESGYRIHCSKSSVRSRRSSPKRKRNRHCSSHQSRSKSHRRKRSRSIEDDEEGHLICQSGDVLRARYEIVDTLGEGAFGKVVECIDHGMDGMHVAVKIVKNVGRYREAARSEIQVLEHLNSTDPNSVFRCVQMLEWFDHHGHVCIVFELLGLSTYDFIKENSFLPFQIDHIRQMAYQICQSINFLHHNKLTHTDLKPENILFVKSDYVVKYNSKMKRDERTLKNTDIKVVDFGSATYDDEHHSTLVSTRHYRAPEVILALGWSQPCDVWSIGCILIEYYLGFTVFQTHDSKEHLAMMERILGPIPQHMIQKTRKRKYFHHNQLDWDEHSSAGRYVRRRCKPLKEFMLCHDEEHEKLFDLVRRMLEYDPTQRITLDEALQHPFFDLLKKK

Row | SMILES | residual activity [1] [%] | residual activity [2] [%] | residual activity [3] [%] | residual activity [4] [%] | residual activity [5] [%] | residual activity [6] [%] | residual activity [7] [%] | residual activity [8] [%] | residual activity [9] [%] | residual activity [10] [%] | residual activity [11] [%] | residual activity [12] [%] | residual activity [13] [%] | residual activity [14] [%] | residual activity [15] [%] | residual activity [16] [%] | residual activity [17] [%] | residual activity [18] [%] | residual activity [19] [%] | residual activity [20] [%] | further results
1 | CCC(=O)N[C@H]1CC[C@@H](C(=O)N(C)c2ccc(-c3nc4ccccc4o3)cc2)C1 [BI 99179] | 72 | 94 | 97 | 66 | 100 | 91 | 79 | 94 | 100 | 100 | 97 | 76 | 73 | 100 | 91 | 88 | 100 | 100 | 77 | 79 | residual activity [21]: 100%; residual activity [22]: 100%; residual activity [23]: 87%; residual activity [24]: 100%; residual activity [25]: 97%; residual activity [26]: 100%; residual activity [27]: 85%; residual activity [28]: 100%; residual activity [29]: 74%; residual activity [30]: 100%; residual activity [31]: 99%; residual activity [32]: 100%; residual activity [33]: 100%; residual activity [34]: 100%; residual activity [35]: 84%; residual activity [36]: 75%; residual activity [37]: 90%; residual activity [38]: 100%; inhibition [39]: 4.58%
2 | CCC(=O)N[C@@H]1CC[C@H](C(=O)N(C)c2ccc(-c3nc4ccccc4o3)cc2)C1 [BI 99990] | 86 | 100 | 100 | 100 | 100 | 100 | 85 | 88 | 100 | 36 | 100 | 100 | 100 | 87 | 86 | 100 | 84 | 100 | 88 | 98 | residual activity [21]: 93%; residual activity [22]: 100%; residual activity [23]: 100%; residual activity [24]: 83%; residual activity [25]: 87%; residual activity [26]: 100%; residual activity [27]: 99%; residual activity [28]: 100%; residual activity [29]: 75%; residual activity [30]: 100%; residual activity [31]: 100%; residual activity [32]: 100%; residual activity [33]: 100%; residual activity [34]: 73%; residual activity [35]: 100%; residual activity [36]: 77%; residual activity [37]: 100%; residual activity [38]: 100%; inhibition [39]: 17.9%
